Measurements from PubChem BioAssay (NCI).
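Where inhibition never reached the appropriate level, the endpoint shown equals the highest concentration tested. Otherwise, values were interpolated linearly from a five-concentration, 48-hour dose response in 96-well plates. At the GI50, growth is halved. Definition used: TGI = concentration required for complete inhibition of growth.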

Tests used:
Assay in all cases: DTP human tumour cell line panel, 48 h
SK-OV-3 ovarian = system: SK-OV-3 ovarian
NCI-H460 lung = system: NCI-H460 lung
K-562 leukemia = system: K-562 leukemia
HCT-15 colon = system: HCT-15 colon
M14 melanoma = system: M14 melanoma
RPMI-8226 leukemia = system: RPMI-8226 leukemia
SNB-75 CNS = system: SNB-75 CNS
CAKI-1 renal = system: CAKI-1 renal
HS 578T breast = system: HS 578T breast
NCI-H522 lung = system: NCI-H522 lung
SK-MEL-5 melanoma = system: SK-MEL-5 melanoma
HOP-92 NSCLC = system: HOP-92 NSCLC
T-47D breast = system: T-47D breast
IGROV1 ovarian = system: IGROV1 ovarian
MOLT-4 leukemia = system: MOLT-4 leukemia
SK-MEL-28 melanoma = system: SK-MEL-28 melanoma
COLO 205 colon = system: COLO 205 colon
SF-268 CNS = system: SF-268 CNS
UACC-257 melanoma = system: UACC-257 melanoma
HL-60(TB) leukemia = system: HL-60(TB) leukemia
A549 NSCLC = system: A549 NSCLC
CCRF-CEM leukemia = system: CCRF-CEM leukemia
HT29 colon = system: HT29 colon
A498 renal = system: A498 renal
DU-145 prostate = system: DU-145 prostate
HOP-62 NSCLC = system: HOP-62 NSCLC
U251 CNS = system: U251 CNS
PC-3 prostate = system: PC-3 prostate
MDA-MB-231 breast = system: MDA-MB-231 breast
SW-620 colon = system: SW-620 colon
KM12 colon = system: KM12 colon
OVCAR-8 ovarian = system: OVCAR-8 ovarian
MCF7 breast = system: MCF7 breast
UACC-62 melanoma = system: UACC-62 melanoma
786-0 renal = system: 786-0 renal
NCI-H23 lung = system: NCI-H23 lung
RXF 393 renal = system: RXF 393 renal
BT-549 breast = system: BT-549 breast
SNB-19 CNS = system: SNB-19 CNS
EKVX NSCLC = system: EKVX NSCLC
UO-31 renal = system: UO-31 renal
OVCAR-4 ovarian = system: OVCAR-4 ovarian
HCC-2998 colon = system: HCC-2998 colon
SF-295 CNS = system: SF-295 CNS
OVCAR-5 ovarian = system: OVCAR-5 ovarian
SR leukemia = system: SR leukemia
HCT-116 colon = system: HCT-116 colon
SF-539 CNS = system: SF-539 CNS
NCI/ADR-RES ovarian = system: NCI/ADR-RES ovarian
SN12C renal = system: SN12C renal
TK-10 renal = system: TK-10 renal
SK-MEL-2 melanoma = system: SK-MEL-2 melanoma
ACHN renal = system: ACHN renal
OVCAR-3 ovarian = system: OVCAR-3 ovarian
NCI-H226 lung = system: NCI-H226 lung
LOX IMVI melanoma = system: LOX IMVI melanoma
MALME-3M melanoma = system: MALME-3M melanoma

SMILES: Cc1ccc(C(SCC(N)C(=O)O)(c2ccccc2)c2ccccc2)cc1 (configuration not stated)
- GI50 (SK-OV-3 ovarian): 74.8 nM
- TGI (SK-OV-3 ovarian): > 94700 nM
- GI50 (NCI-H460 lung): 71.8 nM
- TGI (NCI-H460 lung): 14800 nM
- GI50 (K-562 leukemia): 48.5 nM
- TGI (K-562 leukemia): > 100000 nM
- GI50 (HCT-15 colon): 218 nM
- TGI (HCT-15 colon): > 49400 nM
- GI50 (M14 melanoma): 24.7 nM
- TGI (M14 melanoma): 66.3 nM
- GI50 (RPMI-8226 leukemia): 38.5 nM
- TGI (RPMI-8226 leukemia): > 100000 nM
- GI50 (SNB-75 CNS): 128 nM
- TGI (SNB-75 CNS): 58300 nM
- GI50 (CAKI-1 renal): 151 nM
- TGI (CAKI-1 renal): > 100000 nM
- GI50 (HS 578T breast): 37.1 nM
- TGI (HS 578T breast): 913 nM
- GI50 (NCI-H522 lung): 40.3 nM
- TGI (NCI-H522 lung): 85100 nM
- GI50 (SK-MEL-5 melanoma): 45.2 nM
- TGI (SK-MEL-5 melanoma): 19600 nM
- GI50 (HOP-92 NSCLC): 288 nM
- TGI (HOP-92 NSCLC): 73100 nM
- GI50 (T-47D breast): 123 nM
- TGI (T-47D breast): > 77700 nM
- GI50 (IGROV1 ovarian): 141 nM
- TGI (IGROV1 ovarian): > 71300 nM
- GI50 (MOLT-4 leukemia): 244 nM
- TGI (MOLT-4 leukemia): > 100000 nM
- GI50 (SK-MEL-28 melanoma): 6500 nM
- TGI (SK-MEL-28 melanoma): > 100000 nM
- GI50 (COLO 205 colon): 98 nM
- TGI (COLO 205 colon): 950 nM
- GI50 (SF-268 CNS): 61.2 nM
- TGI (SF-268 CNS): 31900 nM
- GI50 (UACC-257 melanoma): 22800 nM
- TGI (UACC-257 melanoma): > 100000 nM
- GI50 (HL-60(TB) leukemia): 87.8 nM
- GI50 (A549 NSCLC): 153 nM
- TGI (A549 NSCLC): > 100000 nM
- GI50 (CCRF-CEM leukemia): 83.2 nM
- TGI (CCRF-CEM leukemia): > 100000 nM
- GI50 (HT29 colon): 365 nM
- TGI (HT29 colon): > 100000 nM
- GI50 (A498 renal): 1020 nM
- TGI (A498 renal): > 64700 nM
- GI50 (DU-145 prostate): 181 nM
- TGI (DU-145 prostate): 466 nM
- GI50 (HOP-62 NSCLC): 180 nM
- TGI (HOP-62 NSCLC): > 49700 nM
- GI50 (U251 CNS): 42 nM
- TGI (U251 CNS): > 40100 nM
- GI50 (PC-3 prostate): 75 nM
- TGI (PC-3 prostate): > 100000 nM
- GI50 (MDA-MB-231 breast): 38.1 nM
- TGI (MDA-MB-231 breast): 571 nM
- GI50 (SW-620 colon): 43.7 nM
- TGI (SW-620 colon): > 69800 nM
- GI50 (KM12 colon): 98.3 nM
- TGI (KM12 colon): 5980 nM
- GI50 (OVCAR-8 ovarian): 139 nM
- TGI (OVCAR-8 ovarian): > 100000 nM
- GI50 (MCF7 breast): 32.4 nM
- TGI (MCF7 breast): > 79100 nM
- GI50 (UACC-62 melanoma): 56.1 nM
- TGI (UACC-62 melanoma): > 59400 nM
- GI50 (786-0 renal): 175 nM
- TGI (786-0 renal): 2430 nM
- GI50 (NCI-H23 lung): 236 nM
- TGI (NCI-H23 lung): > 96000 nM
- GI50 (RXF 393 renal): 103 nM
- TGI (RXF 393 renal): > 100000 nM
- GI50 (BT-549 breast): 145 nM
- TGI (BT-549 breast): > 69700 nM
- GI50 (SNB-19 CNS): 125 nM
- TGI (SNB-19 CNS): > 100000 nM
- GI50 (EKVX NSCLC): 210 nM
- TGI (EKVX NSCLC): > 100000 nM
- GI50 (UO-31 renal): 13800 nM
- TGI (UO-31 renal): > 100000 nM
- GI50 (OVCAR-4 ovarian): 22800 nM
- TGI (OVCAR-4 ovarian): > 100000 nM
- GI50 (HCC-2998 colon): 246 nM
- TGI (HCC-2998 colon): 15200 nM
- GI50 (SF-295 CNS): 46.5 nM
- TGI (SF-295 CNS): > 100000 nM
- GI50 (OVCAR-5 ovarian): 2410 nM
- TGI (OVCAR-5 ovarian): > 100000 nM
- GI50 (SR leukemia): 72.4 nM
- TGI (SR leukemia): > 45800 nM
- GI50 (HCT-116 colon): 38.4 nM
- TGI (HCT-116 colon): 13000 nM
- GI50 (SF-539 CNS): 33 nM
- TGI (SF-539 CNS): 1080 nM
- GI50 (NCI/ADR-RES ovarian): 1030 nM
- TGI (NCI/ADR-RES ovarian): 6030 nM
- GI50 (SN12C renal): 130 nM
- TGI (SN12C renal): > 65900 nM
- GI50 (TK-10 renal): 1220 nM
- TGI (TK-10 renal): > 100000 nM
- GI50 (SK-MEL-2 melanoma): 2750 nM
- TGI (SK-MEL-2 melanoma): 98000 nM
- GI50 (ACHN renal): 2670 nM
- TGI (ACHN renal): > 100000 nM
- GI50 (OVCAR-3 ovarian): 39.1 nM
- TGI (OVCAR-3 ovarian): 158 nM
- GI50 (NCI-H226 lung): 9290 nM
- TGI (NCI-H226 lung): 42900 nM
- GI50 (LOX IMVI melanoma): 247 nM
- TGI (LOX IMVI melanoma): 21600 nM
- TGI (MALME-3M melanoma): > 100000 nM
